Columns and labels:
[1] = system: control sera (pooled serum of ten healthy LUMC hospital workers; commercial negative donor pooled serum from the Dutch bloodbank); format: binding, human; design: Binding of Control serum LUMC to linear peptides / Binding of Control serum Blood-bank to linear peptides / Binding of Control serum LUMC to looped peptides / Binding of Control Serum Blood-Bank to Looped peptides / Binding of Control serum LUMC to linear peptides of the protein M of SARS-CoV Urbani / Binding of Control serum Blood-bank to linear peptides of the protein M of SARS-CoV Urbani / Binding of Control serum LUMC to looped peptides of the protein M of SARS-CoV Urbani / Binding of Control Serum Blood-Bank to Looped peptides of the protein M of SARS-CoV Urbani: unit not given here
[2] = system: recombinant human anti-SARS-CoV antibody 03-018; format: binding; design: Binding of antibody 03-018 to linear peptides of the N protein of SARS-CoV Urbani / Binding of antibody 03-018 to looped/cyclic peptides of the N protein of SARS-CoV Urbani: unit not given here
[3] = system: antibodies in sera from SARS patients (sera 1a, 1b, 2, 6, 37, 62, London, SARS-yellow, SARS-green); format: binding, human; design: Binding of serum 6 to linear peptides of protein X1 of SARS-CoV Urbani / Binding of serum 37 to linear peptides of protein X1 of SARS-CoV Urbani / Binding of serum 6 to looped/cyclic peptide (PEPSCAN-ELISA) / Binding of serum 37 to looped/cyclic peptide (PEPSCAN-ELISA) / Binding of serum 37 to looped/cyclic peptides of protein X1 of SARS-CoV Urbani / Binding of serum 6 to linear peptides of protein X2 / Binding of serum 37 to linear peptides of protein X2 / Binding of serum 37 to looped/cyclic peptides of protein X2 of SARS-CoV Urbani / Binding of serum 6 to linear peptides of protein M of SARS-CoV Urbani / Binding of serum 37 to linear peptides of protein M of SARS-CoV Urbani / Binding of serum 6 to looped/cyclic peptides of protein M of SARS-CoV Urbani / Binding of serum 37 to looped/cyclic peptides of protein M of SARS-CoV Urbani / Binding of serum 6 to linear peptides of protein X3 of SARS-CoV Urbani / Binding of serum 37 to linear peptides of protein X3 of SARS-CoV Urbani / Binding of serum 37 to looped/cyclic peptides of protein X3 of SARS-CoV Urbani / Binding of serum 6 to linear peptides of protein X4 of SARS-CoV Urbani / Binding of serum 37 to linear peptides of protein X4 of SARS-CoV Urbani / Binding of serum 37 to looped/cyclic peptides of protein X4 of SARS-CoV Urbani / Binding of serum 6 to linear peptides of protein X5 of SARS-CoV Urbani / Binding of serum 37 to linear peptides of protein X5 of SARS-CoV Urbani / Binding of serum 37 to looped/cyclic peptides of protein X5 of SARS-CoV Urbani / Binding of serum 6 to linear peptides of protein N of SARS-CoV Urbani / Binding of serum 37 to linear peptides of protein N of SARS-CoV Urbani / Binding of serum 6 to linear peptide (PEPSCAN-ELISA) / Binding of serum 1a to looped/cyclic peptides of protein N of SARS-CoV Urbani / Binding of serum 1b to looped/cyclic peptides of protein N of SARS-CoV Urbani / Binding of serum 2 to looped/cyclic peptides of protein N of SARS-CoV Urbani / Binding of serum 6 to looped/cyclic peptides of protein N of SARS-CoV Urbani / Binding of serum 37 to looped/cyclic peptides of protein N of SARS-CoV Urbani / Binding of serum 62 to looped/cyclic peptides of protein N of SARS-CoV Urbani / Binding of serum London to looped/cyclic peptides of protein N of SARS-CoV Urbani / Binding of serum SARS-green to looped/cyclic peptides of protein N of SARS-CoV Urbani: unit not given here
[4] = system: rabbit serum obtained by immunizing a rabbit with the SARS-CoV strain Frankfurt 1; format: binding; design: Binding of a rabbit serum to linear peptides / Binding of a rabbit serum to looped peptides / Rabbit serum linear peptides / Rabbit serum looped peptides / Binding of a rabbit serum to linear peptides of protein N of SARS-CoV Urbani (Rabbit serum linear peptides) / Binding of a rabbit serum to looped/cyclic peptides of protein N of SARS-CoV Urbani (Rabbit serum looped peptides): unit not given here

Sequence | Binding of Control Serum Blood-Bank to Looped peptides [1] | Binding of Control serum Blood-bank to linear peptides [1] | Binding of Control serum LUMC to linear peptides [1] | Binding of Control serum LUMC to looped peptides [1] | Binding of antibody 03-018 to linear peptides of the N protein of SARS-CoV Urbani [2] | Binding of antibody 03-018 to looped/cyclic peptides of the N protein of SARS-CoV Urbani [2] | Binding of serum 1a to linear peptides of protein N of SARS-CoV Urbani [3] | Binding of serum 1a to looped/cyclic peptides of protein N of SARS-CoV Urbani [3] | Binding of serum 1b to linear peptides of protein N of SARS-CoV Urbani [3] | Binding of serum 1b to looped/cyclic peptides of protein N of SARS-CoV Urbani [3] | Binding of serum 2 to linear peptides of protein N of SARS-CoV Urbani [3] | Binding of serum 2 to looped/cyclic peptides of protein N of SARS-CoV Urbani [3] | Binding of serum 6 to looped/cyclic peptides of protein N of SARS-CoV Urbani [3] | Binding of serum 37 to looped/cyclic peptides of protein N of SARS-CoV Urbani [3] | Binding of serum 62 to looped/cyclic peptides of protein N of SARS-CoV Urbani [3] | Binding of serum London to looped/cyclic peptides of protein N of SARS-CoV Urbani [3] | Binding of serum SARS-green to looped/cyclic peptides of protein N of SARS-CoV Urbani [3] | Binding of serum SARS-yellow to looped/cyclic peptides of protein N of SARS-CoV Urbani [3] | Binding of a rabbit serum to linear peptides of protein N of SARS-CoV Urbani (Rabbit serum linear peptides) [4] | Binding of a rabbit serum to looped/cyclic peptides of protein N of SARS-CoV Urbani (Rabbit serum looped peptides) [4] | other results
KMKELSPRWYFYYLG | 0.8 | 0.6 | 0.5 | 0.6 | 0.1 | 0.2 | 0.2 | 0.3 | 0.1 | 0.2 | 0.1 | 0.4 | 0.3 | 0.7 | 0.7 | 0.4 | 0.4 | 0.6 | 0.1 | 0.6 | Binding of serum 6 to linear peptides of protein N of SARS-CoV Urbani [3]: 0.1; Binding of serum 37 to linear peptides of protein N of SARS-CoV Urbani [3]: 0.5; Binding of serum 62 to linear peptides of protein N of SARS-CoV Urbani [3]: 0.5; Binding of serum London to linear peptides of protein N of SARS-CoV Urbani [3]: 0.4; Binding of serum SARS-green to linear peptides of protein N of SARS-CoV Urbani [3]: 0.1; Binding of serum SARS-yellow to linear peptides of protein N of SARS-CoV Urbani [3]: 0.6
SNQRSAPRITFGGPT | 0.7 | 0.6 | 0.5 | 0.7 |  |  | 0.2 | 0.4 | 0.1 | 0.2 | 0.2 | 0.4 | 0.4 | 0.7 | 0.4 | 0.9 | 0.3 | 0.6 | 0.4 | 0.9 | Recognition of the peptide by antibody 03-018 [2]: recognized; Binding of serum 6 to linear peptides of protein N of SARS-CoV Urbani [3]: 0.1; Binding of serum 37 to linear peptides of protein N of SARS-CoV Urbani [3]: 0.6; Binding of serum 62 to linear peptides of protein N of SARS-CoV Urbani [3]: 0.6; Binding of serum London to linear peptides of protein N of SARS-CoV Urbani [3]: 0.4; Binding of serum SARS-green to linear peptides of protein N of SARS-CoV Urbani [3]: 0.2; Binding of serum SARS-yellow to linear peptides of protein N of SARS-CoV Urbani [3]: 0.5
SPRWYFYYLGTGPEA | 0.8 | 0.7 | 0.6 | 0.8 | 0.1 | 0.2 | 0.3 | 0.6 | 0.2 | 0.3 | 0.2 | 0.5 | 0.4 | 0.9 | 1.1 | 0.7 | 0.6 | 0.7 | 0.2 | 0.6 | Binding of serum 6 to linear peptides of protein N of SARS-CoV Urbani [3]: 0.2; Binding of serum 37 to linear peptides of protein N of SARS-CoV Urbani [3]: 0.9; Binding of serum 62 to linear peptides of protein N of SARS-CoV Urbani [3]: 0.9; Binding of serum London to linear peptides of protein N of SARS-CoV Urbani [3]: 0.5; Binding of serum SARS-green to linear peptides of protein N of SARS-CoV Urbani [3]: 0.6; Binding of serum SARS-yellow to linear peptides of protein N of SARS-CoV Urbani [3]: 0.6
SRGGSQASSRSSSRS | 0.5 | 0.7 | 0.6 | 0.6 | 0.1 | 0.2 |  | 0.4 |  | 0.3 |  | 0.3 | 0.3 | 0.5 | 0.3 | 0.3 | 0.2 | 0.2 | 0.2 | 0.5 | Binding of serum 1a to linear peptide (PEPSCAN-ELISA) [3]: 0.3; Binding of serum 1b to linear peptide (PEPSCAN-ELISA) [3]: 0.1; Binding of serum 2 to linear peptide (PEPSCAN-ELISA) [3]: 0.3; Binding of serum 6 to linear peptide (PEPSCAN-ELISA) [3]: 0.4; Binding of serum 37 to linear peptide (PEPSCAN-ELISA) [3]: 0.6; Binding of serum 62 to linear peptide (PEPSCAN-ELISA) [3]: 0.7; Binding of serum London to linear peptide (PEPSCAN-ELISA) [3]: 0.4; Binding of serum SARS-green to linear peptide (PEPSCAN-ELISA) [3]: 0.1; Binding of serum SARS-yellow to linear peptide (PEPSCAN-ELISA) [3]: 0.9

— patent publication US20070128217A1 (priority 2003, published 2007)
